Results on eleven compounds are retold here after PubChem BioAssay (NCI).

Among the test systems are SNB-19 CNS; RPMI-8226 leukemia; SF-295 CNS; OVCAR-3 ovarian; HT29 colon; NCI/ADR-RES ovarian; NCI-H522 lung; HCT-15 colon; SF-268 CNS; HOP-92 NSCLC.
Holding throughout (assay): growth of human tumour cells (NCI), 48 h

The structures appear in SMILES notation.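 Grown in 96-well plates, cells were treated for 48 hours with each compound at five concentrations. Insufficient inhibition: endpoint recorded as highest concentration tested. GI50 marks 50% less growth. The concentration for full growth arrest is given as TGI.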

Turning to `COc1cc(Cl)c(C)cc1NC(=O)c1cc2ccccc2cc1O`, the GI50 with SNB-19 CNS was 4340 nM; with RPMI-8226 leukemia, 1460 nM; with SF-295 CNS it was 2430 nM; in the experiment on OVCAR-3 ovarian it was 1860 nM; in the experiment on HT29 colon, 2880 nM; with NCI/ADR-RES ovarian, 2550 nM. Moreover, the GI50 in the experiment with NCI-H522 lung is 1460 nM; with HCT-15 colon it was 2500 nM; in the experiment with SF-268 CNS it was 3240 nM; in the experiment with HOP-92 NSCLC, 398 nM. Moreover, the TGI with SNB-19 CNS was 20700 nM; with RPMI-8226 leukemia, 6170 nM; in the experiment on SF-295 CNS, 7910 nM; with OVCAR-3 ovarian it was 7090 nM; with HT29 colon, 8340 nM; with NCI/ADR-RES ovarian, 9040 nM. Besides, the TGI in the experiment on NCI-H522 lung was 4470 nM; in the experiment with HCT-15 colon, 13400 nM; in the experiment on SF-268 CNS, 14300 nM; with HOP-92 NSCLC it was 3570 nM.

Consider `N=C(N)c1ccc(-c2ccc(-c3ccccc3)o2)o1`, for which the GI50 with SNB-19 CNS was 3010 nM; in the experiment with RPMI-8226 leukemia, 2890 nM; in the experiment with SF-295 CNS, 1810 nM; in the experiment with OVCAR-3 ovarian, 3130 nM; with HT29 colon, 2110 nM; in the experiment with NCI/ADR-RES ovarian it was 2820 nM. Also, the GI50 in the experiment on NCI-H522 lung is 1940 nM; in the experiment on HCT-15 colon, 1160 nM; in the experiment with SF-268 CNS it was 2980 nM; in the experiment on HOP-92 NSCLC, 1850 nM. Moreover, the TGI turned out to be 10100 nM in the experiment on SNB-19 CNS; 8210 nM with RPMI-8226 leukemia; 4030 nM with SF-295 CNS; 11900 nM in the experiment on OVCAR-3 ovarian; 4700 nM with HT29 colon; 11000 nM in the experiment with NCI/ADR-RES ovarian. The TGI in the experiment with NCI-H522 lung came to 3890 nM; in the experiment on HCT-15 colon it was 4220 nM; in the experiment on SF-268 CNS it was 12300 nM; with HOP-92 NSCLC, 4730 nM.

On to `O=C1/C=C/[C@@H](O)[C@@H]2C[C@@H](O)C[C@H]2/C=C/CCCCO1`, for which the GI50 in the experiment on SNB-19 CNS was 749 nM; in the experiment with RPMI-8226 leukemia, 248 nM; in the experiment on SF-295 CNS, 774 nM; in the experiment on OVCAR-3 ovarian, 202 nM; in the experiment with HT29 colon, 338 nM; in the experiment with NCI/ADR-RES ovarian, 475 nM. The GI50 is 1770 nM in the experiment on NCI-H522 lung, 364 nM in the experiment with HCT-15 colon, 330 nM in the experiment with SF-268 CNS and 368 nM in the experiment with HOP-92 NSCLC. The TGI with SNB-19 CNS is above 100000 nM; in the experiment with RPMI-8226 leukemia, 889 nM; in the experiment with SF-295 CNS, above 100000 nM; with OVCAR-3 ovarian it was 468 nM; in the experiment on HT29 colon, above 100000 nM; in the experiment with NCI/ADR-RES ovarian it was above 54100 nM. The TGI in the experiment on NCI-H522 lung was 5630 nM; in the experiment on HOP-92 NSCLC, above 20800 nM.

As to `Nc1c(S(=O)(=O)O)cc2c(c1Cl)C(=O)c1ccccc1C2=O`, the GI50 in the experiment with SNB-19 CNS, in the experiment on RPMI-8226 leukemia, in the experiment with SF-295 CNS, with OVCAR-3 ovarian, in the experiment with HT29 colon and with NCI/ADR-RES ovarian was above 100000 nM each time. The GI50 in the experiment on NCI-H522 lung, in the experiment on HCT-15 colon, in the experiment with SF-268 CNS and in the experiment with HOP-92 NSCLC was above 100000 nM each time. Further, the TGI with SNB-19 CNS, in the experiment on RPMI-8226 leukemia, in the experiment on SF-295 CNS, in the experiment with OVCAR-3 ovarian, in the experiment on HT29 colon and in the experiment on NCI/ADR-RES ovarian was above 100000 nM throughout. The TGI in the experiment with NCI-H522 lung, in the experiment on HCT-15 colon, in the experiment with SF-268 CNS and in the experiment with HOP-92 NSCLC was above 100000 nM each time.

As for `O=C(O)c1cccc(F)c1C(=O)c1ccc2ccccc2c1`, the TGI with SNB-19 CNS, in the experiment on RPMI-8226 leukemia, in the experiment on SF-295 CNS, with OVCAR-3 ovarian, in the experiment on HT29 colon and in the experiment on NCI/ADR-RES ovarian was above 100000 nM each time. Also, the TGI with NCI-H522 lung, in the experiment with HCT-15 colon, in the experiment with SF-268 CNS and in the experiment with HOP-92 NSCLC was above 100000 nM throughout.

For `COc1cc(Nc2nccc(-c3cnn4ncccc34)n2)cc(OC)c1`, the GI50 in the experiment with SNB-19 CNS was 83.6 nM; in the experiment with RPMI-8226 leukemia, 86.2 nM; in the experiment on SF-295 CNS it was 57.2 nM; with OVCAR-3 ovarian, 50.9 nM; in the experiment on HT29 colon, 84.2 nM; in the experiment with NCI/ADR-RES ovarian, 93.7 nM. Also, the GI50 in the experiment with NCI-H522 lung is 79 nM; with HCT-15 colon it was 88.9 nM; in the experiment on SF-268 CNS it was 69.7 nM; in the experiment with HOP-92 NSCLC, 31.7 nM. Also, the TGI was above 25000 nM in the experiment with SNB-19 CNS; 388 nM with RPMI-8226 leukemia; 721 nM with SF-295 CNS; 822 nM with OVCAR-3 ovarian; 709 nM in the experiment with HT29 colon; 2260 nM with NCI/ADR-RES ovarian. Moreover, the TGI with NCI-H522 lung is 619 nM; in the experiment with HCT-15 colon, above 5170 nM; in the experiment with SF-268 CNS, 480 nM; with HOP-92 NSCLC it was 151 nM.

For `CC/C(=C(/c1ccc(Cl)cc1)c1ccc(OCCCN(C)C)cc1)c1ccc(OC)cc1`, the GI50 is 1880 nM in the experiment on SNB-19 CNS; 1170 nM in the experiment on RPMI-8226 leukemia; 918 nM with SF-295 CNS; 3270 nM in the experiment on OVCAR-3 ovarian; 1060 nM in the experiment with HT29 colon; 7270 nM with NCI/ADR-RES ovarian. Further, the GI50 was 6560 nM in the experiment on NCI-H522 lung, 1440 nM in the experiment with HCT-15 colon, 7600 nM in the experiment on SF-268 CNS and 829 nM in the experiment on HOP-92 NSCLC. The TGI in the experiment on SNB-19 CNS amounted to 5780 nM; in the experiment on RPMI-8226 leukemia it was 2540 nM; with SF-295 CNS, 1870 nM; in the experiment with OVCAR-3 ovarian, 10500 nM; in the experiment with HT29 colon it was 2420 nM; in the experiment with NCI/ADR-RES ovarian, 16300 nM. Further, the TGI in the experiment with NCI-H522 lung was 13700 nM; in the experiment with HCT-15 colon, 5080 nM; in the experiment with SF-268 CNS it was 16300 nM; with HOP-92 NSCLC, 1970 nM.

With `Clc1ccc2c(NCCCNCc3ccc4c(c3)OCO4)ccnc2c1`, the GI50 with SNB-19 CNS was 4790 nM; in the experiment on RPMI-8226 leukemia it was 2310 nM; with SF-295 CNS, 2340 nM; with OVCAR-3 ovarian, 5140 nM; in the experiment with HT29 colon, 2230 nM; with NCI/ADR-RES ovarian, 4000 nM. For the same compound, the GI50 is 2440 nM in the experiment with NCI-H522 lung, 2420 nM in the experiment on HCT-15 colon, 3120 nM with SF-268 CNS and 739 nM with HOP-92 NSCLC. The TGI in the experiment with SNB-19 CNS is 16900 nM; with RPMI-8226 leukemia it was 6160 nM; in the experiment with SF-295 CNS, 7110 nM; with OVCAR-3 ovarian, 18700 nM; in the experiment with HT29 colon, 6850 nM; in the experiment with NCI/ADR-RES ovarian it was 18400 nM. The TGI in the experiment on NCI-H522 lung was 8010 nM; in the experiment with HCT-15 colon, 7850 nM; in the experiment on SF-268 CNS, 12700 nM; with HOP-92 NSCLC, 4740 nM.

Regarding `NC(CSC(c1ccccc1)(c1ccccc1)c1ccc(Br)cc1)C(=O)O` (configuration not stated), the GI50 in the experiment with SNB-19 CNS was 296 nM; in the experiment on RPMI-8226 leukemia, 93 nM; in the experiment on SF-295 CNS, 76.4 nM; with OVCAR-3 ovarian it was 94.2 nM; in the experiment on HT29 colon, 399 nM; with NCI/ADR-RES ovarian it was 976 nM. The GI50 in the experiment on NCI-H522 lung is 120 nM; in the experiment on HCT-15 colon, 258 nM; in the experiment on SF-268 CNS it was 151 nM; in the experiment with HOP-92 NSCLC, 2470 nM. Moreover, the TGI is above 76600 nM in the experiment with SNB-19 CNS; 22600 nM with RPMI-8226 leukemia; above 100000 nM in the experiment on SF-295 CNS; 412 nM in the experiment on OVCAR-3 ovarian; above 54900 nM with HT29 colon; 4540 nM in the experiment on NCI/ADR-RES ovarian. The TGI with NCI-H522 lung was 22300 nM; with HCT-15 colon, above 82000 nM; with SF-268 CNS, 22400 nM; in the experiment with HOP-92 NSCLC it was 39600 nM.

On to `COc1ccc(S(=O)(=O)Nc2c(/C=C\c3cc(OC)c(OC)c(OC)c3)ccc(OC)c2O)cc1OC`, for which the GI50 is 506 nM in the experiment on SNB-19 CNS; 413 nM in the experiment with RPMI-8226 leukemia; 242 nM in the experiment on SF-295 CNS; 210 nM in the experiment on OVCAR-3 ovarian; 498 nM with HT29 colon; 1580 nM with NCI/ADR-RES ovarian. The GI50 with NCI-H522 lung was 77.6 nM; in the experiment on HCT-15 colon, 308 nM; in the experiment with SF-268 CNS, 1290 nM; in the experiment on HOP-92 NSCLC it was 80.1 nM. The TGI is above 100000 nM in the experiment with SNB-19 CNS; above 61000 nM with RPMI-8226 leukemia; above 100000 nM with SF-295 CNS; above 100000 nM in the experiment on HT29 colon; above 100000 nM in the experiment with NCI/ADR-RES ovarian; above 100000 nM in the experiment on NCI-H522 lung. The TGI in the experiment on HCT-15 colon, in the experiment with SF-268 CNS and in the experiment with HOP-92 NSCLC was above 100000 nM each time.

With `O=C(Nc1ccc(-n2cc(-c3ccncc3)c(-c3ccc(Cl)c(O)c3)n2)cc1)c1ccc(Cl)c(C(F)(F)F)c1`, the GI50 with SNB-19 CNS is 4160 nM; with RPMI-8226 leukemia, 426 nM; in the experiment with SF-295 CNS it was 216 nM; in the experiment on OVCAR-3 ovarian, 2030 nM; in the experiment with HT29 colon it was 838 nM; with NCI/ADR-RES ovarian it was 2770 nM. Besides, the GI50 was 1140 nM in the experiment with NCI-H522 lung, 444 nM with HCT-15 colon, 2680 nM with SF-268 CNS and 1990 nM in the experiment on HOP-92 NSCLC. The TGI was above 100000 nM in the experiment on SNB-19 CNS; 2680 nM in the experiment with RPMI-8226 leukemia; 475 nM in the experiment with SF-295 CNS; 6240 nM in the experiment on OVCAR-3 ovarian; 3050 nM with HT29 colon; above 100000 nM in the experiment with NCI/ADR-RES ovarian. Further, the TGI in the experiment on NCI-H522 lung is 4040 nM; in the experiment with HCT-15 colon, 2580 nM; in the experiment with SF-268 CNS, above 31800 nM; in the experiment with HOP-92 NSCLC, 5870 nM.
